According to patent publication US20120208204A1, “Compositions and Methods for Inhibiting Tumor Growth” (The Brigham and Women's Hospital, Inc., priority 2009, published 2012):

Test system: SGK2
Assay: Inhibition of kinase activity by SGK2 inhibitory compounds, single concentration
Assay type: biochemical
Settings: 10 μM compound
Excerpt: A library of compounds was screened for inhibitors of SGK2 and PAK3 activity by assaying phosphorylation of a generic peptide substrate either directly; or indirectly by inhibiting upstream kinase PDK1 from activating the enzyme in vitro. In both cases, the phosphorylated substrate was detected using a specific anti-phospho peptide antibody that is coupled with Eu^3+ Cryptate and XL665 conjugated with streptavidin. […] All initial hits were re-assayed as a dose response series with eight 3-fold dilutions and resulting final concentrations ranged from 0.9 nM to 20 μM.

In order of rising “% Inhibition at 10 μM” value:
1. Nc1ccc2oc3ccc(N)cc3c(=O)c2c1 [LDN-0063356]  50%
2. CN1c2ccccc2Sc2cc(N)ccc21 [LDN-0065927]  52%
3. Cc1ccc(NC(=O)Cn2cc(C(=O)c3ccccc3)c(=O)c3ccc(C)nc32)cc1 [LDN-0130103]  62%
4. COc1cccc(=O)c2c(C)n(CC(=O)c3ccccc3)c(C)c12 [LDN-0071595]  64%
5. Oc1ccc(-c2nc(-c3ccc4sc5ccccc5c4c3)c(-c3ccccc3)[nH]2)cc1 [LDN-0044883]  64%
6. CC(=O)Oc1ccc(C2Nc3c(C(=O)O)ccc([N+](=O)[O-])c3C3C=CCC32)cc1 (centres unmarked) [LDN-0033447]  65%
7. CSc1ccc(-c2nc(-c3ccc(Sc4ccccc4)cc3)c(-c3ccccc3)[nH]2)cc1 [LDN-0044047]  65%
8. COc1ccc(NC(=O)CSc2ncnc3c2oc2ccccc23)cc1 [LDN-0107905]  66%
9. Oc1c(Cl)cc(Cl)c2c1NCCC2 [LDN-0073973]  67%
10. Cc1cccc(NC(=O)CSc2ncnc3c2oc2ccccc23)c1C [LDN-0107915]  67%
11. CCCc1cc2c(cc1N)OCO2 [LDN-0073854]  67%
12. c1ccc(Sc2ccc(-c3nc(-c4ccccc4)[nH]c3-c3ccccc3)cc2)cc1 [LDN-0048956]  68%
13. Oc1ccc(Cl)cc1-c1cc(-c2ccco2)n[nH]1 [LDN-0086824]  68%
14. CCN(CC)c1ccc(C2Nc3cccc4cccc(c34)N2)c(O)c1 [LDN-0045032]  68%
15. Oc1ccc(-c2nc(-c3ccc4sc5ccccc5c4c3)c(-c3ccccc3)[nH]2)cc1O [LDN-0044885]  70%
16. CN(C)c1ccc2nc(SCC(=O)c3ccccc3)sc2c1 [LDN-0073108]  70%
17. O=[N+]([O-])c1c(Cl)cc(O)c2c1C1C=CCC1C(c1ccccc1)N2 (centres unmarked) [LDN-0026088]  70%
18. Nc1ccc2[nH]c(C=Cc3ccccc3)nc2c1 [LDN-0060426]  71%
19. CC#CC1=C(CO)C(=O)C2OC2C1=O (centres unmarked) [LDN-0080086]  71%
20. CN(C)c1ccc(-c2nc3cc(N)ccc3[nH]2)cc1 [LDN-0060537]  72%
21. COc1cccc(C2Nc3cccc4cccc(c34)N2)c1OC [LDN-0045022]  73%
22. NS(=O)(=O)c1ccc(CCNC(=O)c2ccc3c(=O)n(Cc4ccco4)c(=S)[nH]c3c2)cc1 [LDN-0036137]  74%
23. Nc1ccc2c(c1)OC1(CCCC1)O2 [LDN-0073507]  74%
24. C=C1c2c(Cl)ccc(O)c2C(=O)C2=C(O)C3(O)C(=O)C(C(N)=O)=C(O)C(N(C)C)C3C(O)C12.O=C(O)c1cc(S(=O)(=O)O)ccc1O (centres unmarked) [LDN-0097423]  76%
25. O=c1c(O)c(-c2ccc(O)c(O)c2)oc2cc(O)ccc12 [LDN-0058389]  76%
26. N#Cc1c(-c2ccco2)cc(-c2cccs2)nc1N [LDN-0071067]  80%
27. O=c1cc(-c2cc(O)c(O)c(O)c2)oc2cc(O)cc(O)c12 [LDN-0097731]  87%
28. Oc1ccccc1C1Nc2cccc3cccc(c23)N1 [LDN-0045035]  89%
29. Oc1cccc(C2Nc3cccc4cccc(c34)N2)c1 [LDN-0045024]  90%
30. Oc1ccc(C2Nc3cccc4cccc(c34)N2)c(O)c1 [LDN-0045038]  91%
31. N#Cc1c(N)nc(SCC(=O)c2ccc(O)c(O)c2)c(C#N)c1-c1ccc(O)cc1 [LDN-0028574]  91%
32. Oc1cc2c(cc1O)C1c3ccc(O)c(O)c3OCC1(O)C2 (centres unmarked) [LDN-0096990]  91%
33. O=C(OC1Cc2c(O)cc(O)cc2OC1c1cc(O)c(O)c(O)c1)c1cc(O)c(O)c(O)c1 (centres unmarked) [LDN-0022369]  92%
34. O=c1oc2c(Br)c(O)c(Br)cc2s1 [LDN-0060733]  93%
35. Oc1cc(O)c2c(c1)O[C@@]1(c3ccc(O)c(O)c3)Oc3cc(O)c4c(c3[C@@H]2[C@H]1O)O[C@H](c1ccc(O)c(O)c1)[C@H](O)[C@H]4c1c(O)cc(O)c2c1O[C@H](c1ccc(O)c(O)c1)[C@H](O)C2 [LDN-0022358]  93%
36. O=c1oc2cc(Br)c(O)c(Br)c2s1 [LDN-0060240]  94%
37. N#CC1=C(NC(=O)Cc2ccccc2)c2ccccc2CC12CCCCC2 [LDN-0047862]  95%
38. O=c1cc(-c2ccccc2)c2ccc(O)c(O)c2o1 [LDN-0063260]  98%
